PubChem BioAssay (NCI)
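Where inhibition never reached the appropriate level, the endpoint shown equals the highest concentration tested. Otherwise, values were interpolated linearly from a five-concentration, 48-hour dose response in 96-well plates. GI50 is the concentration that inhibits growth by half. TGI: concentration producing complete growth inhibition.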

Experiments:
Experiment in all cases: growth of human tumour cells (NCI), 48 h
SK-MEL-2 melanoma = tested on: SK-MEL-2 melanoma
SF-268 CNS = tested on: SF-268 CNS
786-0 renal = tested on: 786-0 renal
DMS 114 small cell lung = tested on: DMS 114 small cell lung
HT29 colon = tested on: HT29 colon
HCT-116 colon = tested on: HCT-116 colon
SK-MEL-5 melanoma = tested on: SK-MEL-5 melanoma
SNB-19 CNS = tested on: SNB-19 CNS
SW-620 colon = tested on: SW-620 colon
CCRF-CEM leukemia = tested on: CCRF-CEM leukemia

Compound	TGI (SK-MEL-2 melanoma) [µM]	TGI (SF-268 CNS) [µM]	TGI (786-0 renal) [µM]	TGI (DMS 114 small cell lung) [µM]	TGI (HT29 colon) [µM]	TGI (HCT-116 colon) [µM]	TGI (SK-MEL-5 melanoma) [µM]	TGI (SNB-19 CNS) [µM]	TGI (SW-620 colon) [µM]	GI50 (SK-MEL-2 melanoma) [µM]	GI50 (SF-268 CNS) [µM]	GI50 (786-0 renal) [µM]	GI50 (HT29 colon) [µM]	GI50 (CCRF-CEM leukemia) [µM]	TGI (CCRF-CEM leukemia) [µM]	GI50 (HCT-116 colon) [µM]	GI50 (SK-MEL-5 melanoma) [nM]	GI50 (SNB-19 CNS) [µM]	GI50 (SW-620 colon) [µM]
NC(=S)N/N=C1/C(=O)N(c2ccc(Cl)cc2Cl)C(=O)C(=O)C1c1nc2ccccc2s1 (stereo not drawn)	> 100	> 100	> 100	> 100	> 100	> 100	> 100	> 100	> 100										
COc1ccc(/C=C2\CCC(C)(CN(C)C)C2=O)cc1 (stereo not drawn)	> 100	> 100	> 100	> 100	> 100	> 100	> 100	> 100	> 100										
O=c1c2ccccc2c2nc3ccccc3nc2n1C1CCCCC1	> 100	> 100	> 100	> 100	> 100	> 100	> 100	> 100	> 100										
Nc1ccn(C2CC(CO)C(O)C2O)c(=O)n1 (stereo not drawn)	> 57.7	> 57.7	> 57.7	> 57.7		> 57.7	> 57.7	> 57.7	> 57.7										
O=C(Nc1nc2ncn(CC(COc3ccccc3)OC(=O)c3ccccc3)c2c(=O)[nH]1)c1ccccc1 (stereo not drawn)	> 100		> 100	> 100	> 100	> 100	> 100	> 100	> 100										
CCCc1nc2c(C)cc(-c3nc4ccccc4n3C)cc2n1Cc1ccc(-c2ccccc2C(=O)O)cc1	97.3	> 100	> 100		> 100	> 100	> 100	> 100	> 100	36.6	44.1	41.4	35.8	22.7	> 100	43.4	25800	39.4	49.3
CCOC(=O)c1c(C(F)(F)F)n([O-])c2ccc(OC)cc2[n+]1=O	54.4	72.5	49.5		> 100	18.3	3.31	56.6	> 100	19.2	4.65	6.39	7.89	4.3	41.7	4.13	1700	3.77	5.79
COc1ccc(NC(=O)c2sc3nc(C)c(C(O)c4ccccc4)cc3c2N)cc1 (stereo not drawn)	85.7	> 100	> 100		88.8	> 100	4.04	> 100	28.1	4.88	4.06	4.63	2.81	2.54	> 100	2.71	1660	5.24	2.64
Cc1ccc(S(=O)(=O)N2CCc3ccc(O)c4c3C2Cc2cc(Cl)ccc2-4)cc1 (stereo not drawn)	3.41	9.72	9.59		10.8	4.38	5.1	14.8	9.35	1.1	2.47	2.3	5.61	0.922	14.1	1.11	1550	1.48	1.2
CCC(C)C(NC(=O)C1CCCN1C(=O)C(NC(=O)C(C)N)C(C)C)C(N)=O (stereo not drawn)	> 100	> 100	> 100		> 100	> 100	> 100	> 100	> 100	> 100	> 100	> 100	> 100	> 100	> 100	> 100	> 100000	> 100	> 100
CCn1cnc2c(Nc3cccc(Cl)c3)nc(N[C@@H]3CCCC[C@@H]3N)nc21	3.43	3.89	5.05		5.87	2.87	3.11	8.17	5.77	1.65	1.65	1.83	1.91	2.88	9.66	1.12	1680	2.07	1.78
COc1ccc(/C(C)=N/OC(=O)c2c(-c3ccccc3Cl)noc2C)cc1CN1CCOCC1	34.2	> 100	59.2		36.9	36.5	31.8	46.2	> 100						> 100				
N.N.NCCCCN.O=C([O-])C1(C(=O)[O-])CCC1.O=C([O-])C1(C(=O)[O-])CCC1.[Pt+4].[Pt+4]	> 100	> 100	> 100		> 100	> 100	> 100	65.6	93.9	> 100	97.4	> 100	> 100	80.6	> 100	> 100	> 100000	25.9	27
